Legend:
[1] = target: T1, Bifunctional epoxide hydrolase 2 (Homo sapiens) (UniProt P34913); test: Inhibition of human recombinant soluble epoxide hydrolase using (3-phenyl-oxiranyl)-acetic acid cyano-(6-methoxy-naphtalen-2-yl)-methyl ester as substrate at 100 uM incubated for 15 mins prior to substrate addition by fluorescence assay
T1 sequence (whole entry): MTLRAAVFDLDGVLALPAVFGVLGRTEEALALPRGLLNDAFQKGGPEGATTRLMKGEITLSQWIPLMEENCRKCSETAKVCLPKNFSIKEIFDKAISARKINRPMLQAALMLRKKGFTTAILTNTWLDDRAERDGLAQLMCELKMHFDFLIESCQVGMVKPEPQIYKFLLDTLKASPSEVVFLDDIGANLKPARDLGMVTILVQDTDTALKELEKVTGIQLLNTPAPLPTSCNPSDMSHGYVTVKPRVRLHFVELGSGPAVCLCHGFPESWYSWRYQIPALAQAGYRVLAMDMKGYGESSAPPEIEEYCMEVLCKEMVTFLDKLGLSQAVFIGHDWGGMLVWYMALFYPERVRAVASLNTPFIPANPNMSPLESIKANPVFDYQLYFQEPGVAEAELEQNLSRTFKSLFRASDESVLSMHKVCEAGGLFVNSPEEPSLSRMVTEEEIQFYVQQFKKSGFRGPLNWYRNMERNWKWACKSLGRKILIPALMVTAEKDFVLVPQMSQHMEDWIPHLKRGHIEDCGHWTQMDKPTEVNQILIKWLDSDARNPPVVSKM

[2] = target: T2, Bifunctional epoxide hydrolase 2 (Homo sapiens, UniProt P34913); test: Inhibition of human recombinant soluble epoxide hydrolase using (3-phenyl-oxiranyl)-acetic acid cyano-(6-methoxy-naphtalen-2-yl)-methyl ester as substrate incubated for 15 mins prior to substrate addition by fluorescence assay
T2 sequence (P34913 whole entry): T1 sequence (whole entry)

inhibition [1]	IC50 [2]	SMILES
54%	–	Cc1cc(C2CCN(C(=O)Nc3ccccc3Cl)CC2)n(-c2ccc(S(C)(=O)=O)cc2)n1
54%	–	Cc1cc(C2CCN(C(=O)Nc3ccc(Cl)cc3)CC2)n(-c2ccc(S(C)(=O)=O)cc2)n1
54%	–	CCc1ccccc1NC(=O)N1CCC(c2cc(C)nn2-c2ccc(S(C)(=O)=O)cc2)CC1
92.7%	16.7 µM	Cc1cc(C2CCN(C(=O)Nc3ccccc3)CC2)n(-c2ccc(S(N)(=O)=O)cc2)n1
54%	–	Cc1ccc(NC(=O)N2CCC(c3cc(C)nn3-c3ccc(S(C)(=O)=O)cc3)CC2)cc1
23.3%	–	CCNC(=O)N1CCC(c2cc(C)nn2-c2ccc(S(N)(=O)=O)cc2)CC1
32.5%	–	Cc1cc(C2CCN(C(=O)c3ccc(Cl)cc3)CC2)n(-c2ccc(S(N)(=O)=O)cc2)n1
54%	–	Cc1cc(C2CCN(C(=O)Nc3ccccc3Cl)CC2)n(-c2ccc(S(N)(=O)=O)cc2)n1
94.2%	–	Cc1cc(C2CCN(C(=O)NCc3ccccc3)CC2)n(-c2ccc(S(C)(=O)=O)cc2)n1
0%	–	Cc1ccc(C(=O)N2CCC(c3cc(C)nn3-c3ccc(S(N)(=O)=O)cc3)CC2)cc1
89.9%	0.22 µM	Cc1cc(C2CCN(C(=O)Nc3ccccc3)CC2)n(-c2ccc(S(C)(=O)=O)cc2)n1
69.2%	–	Cc1cc(C2CCN(C(=O)NCc3ccccc3)CC2)n(-c2ccc(S(N)(=O)=O)cc2)n1
105%	0.224 µM	Cc1ccc(NC(=O)N2CCC(c3cc(C)nn3-c3ccc(S(N)(=O)=O)cc3)CC2)cc1
57.2%	–	Cc1cc(C2CCN(C(=O)c3ccccc3)CC2)n(-c2ccc(S(N)(=O)=O)cc2)n1
105%	22.3 µM	Cc1cc(C2CCN(C(=O)NC(C)C)CC2)n(-c2ccc(S(N)(=O)=O)cc2)n1

The next lines start with the molecule.

SMILES	inhibition [1]	IC50 [2]
Cc1cc(C2CCN(C(=O)NC(C)C)CC2)n(-c2ccc(S(C)(=O)=O)cc2)n1	45.4%	13.6 µM
COc1ccc(C(=O)N2CCC(c3cc(C)nn3-c3ccc(S(N)(=O)=O)cc3)CC2)cc1	32.9%	–
Cc1cc(C2CCN(C(=O)c3ccccc3)CC2)n(-c2ccc(S(C)(=O)=O)cc2)n1	54%	–
CCCCNC(=O)N1CCC(c2cc(C)nn2-c2ccc(S(C)(=O)=O)cc2)CC1	99.5%	0.269 µM
CCCCNC(=O)N1CCC(c2cc(C)nn2-c2ccc(S(N)(=O)=O)cc2)CC1	82%	10.1 µM
Cc1cc(C2CCN(C(=O)c3ccc([N+](=O)[O-])cc3)CC2)n(-c2ccc(S(C)(=O)=O)cc2)n1	54%	–
Cc1cc(C2CCN(C(=O)NCCc3ccccc3)CC2)n(-c2ccc(S(C)(=O)=O)cc2)n1	54%	–
CCCC(=O)N1CCC(c2cc(C)nn2-c2ccc(S(N)(=O)=O)cc2)CC1	68.7%	–
Cc1cc(C2CCN(C(=O)c3ccc([N+](=O)[O-])cc3)CC2)n(-c2ccc(S(N)(=O)=O)cc2)n1	0%	–
CCCNC(=O)N1CCC(c2cc(C)nn2-c2ccc(S(N)(=O)=O)cc2)CC1	68.6%	–
Cc1cc(C2CCN(C(=O)NC3CCCCC3)CC2)n(-c2ccc(S(N)(=O)=O)cc2)n1	99%	0.275 µM
Cc1cc(C2CCN(C(=O)c3ccc(Cl)cc3)CC2)n(-c2ccc(S(C)(=O)=O)cc2)n1	54%	–
CCCC(=O)N1CCC(c2cc(C)nn2-c2ccc(S(C)(=O)=O)cc2)CC1	54%	–
COc1ccc(C(=O)N2CCC(c3cc(C)nn3-c3ccc(S(C)(=O)=O)cc3)CC2)cc1	15.2%	–
Cc1cc(C2CCN(C(=O)NC3CCCCC3)CC2)n(-c2ccc(S(C)(=O)=O)cc2)n1	114%	3.47 µM
CCCNC(=O)N1CCC(c2cc(C)nn2-c2ccc(S(C)(=O)=O)cc2)CC1	54%	–
Cc1ccc(C(=O)N2CCC(c3cc(C)nn3-c3ccc(S(C)(=O)=O)cc3)CC2)cc1	42.1%	–
CCNC(=O)N1CCC(c2cc(C)nn2-c2ccc(S(C)(=O)=O)cc2)CC1	54%	–
